Test results published in patent US20190048052A1, “ANTI-MICROBIAL PEPTIDES AND COATINGS” (Board of Regents of the University of Nebraska, priority 2016, published 2019).
Values after ≈ are worked out from the molar mass of the structure shown. Read-outs that look alike come from different tables or passages of the source. Values belong to the molecule of their own block, whether it stands above or below them. Non-standard residues stand in square brackets, D forms with d. Residues, ends and D or L forms follow the SMILES beside them. Bip = N[C@@H](Cc1ccc(-c2ccccc2)cc1)C(=O)O

Columns and labels:
E. faecium ATCC51559 = assay type: cell-based, Enterococcus faecium
Protocol: (§1) Bacterial strains used in this study included Enterococcus faecium ATCC51559, Staphylococcus aureus USA300 LAC, Klebsiella pneumoniae ATCC 13883, Acinetobacter baumannii B2367-12, Pseudomonas aeruginosa PAO1, Enterobacter cloacae B2366-12 and Escherichia coli ATCC 25922, wherein the first six constituting the ESKAPE pathogens. Tryptic soy broth (TSB) for bacterial growth was obtained from BD Bioscience (Sparks, Md.).
(§2) The antibacterial activity of peptides was evaluated using a standard broth microdilution protocol as described (Wang et al. (2012) Antimicrob. Agents Chemother., 56:845-856). In brief, 5 μl of each bacterium (stored at −80° C.) were inoculated into TSB medium (2 ml) and grown overnight. A second inoculation was made in the morning by delivering 10 μl of the overnight culture to a fresh TSB medium. After 2-3 hours growth at 37° C., 225 rpm, logarithmic phase bacterial cultures (OD600≈0.5) were diluted and partitioned into a 96-well polystyrene microplate with ˜10^5 colony forming units (CFU) per well (90 μl aliquots). After treatment with 10 μl of peptide solutions at various concentrations, microplates were incubated at 37° C. overnight and read on a ChroMate® 4300 Microplate Reader at 630 nm (GMI, Ramsey, Minn.). The medium was used as a blank where no bacteria should grow.

S. aureus USA300 LAC = assay type: cell-based, Staphylococcus aureus
Protocol: as §1, §2

A. baumannii B2367-12 = assay type: cell-based, Acinetobacter baumannii
Protocol: as §1, §2

P. aeruginosa PAO1 = assay type: cell-based, Pseudomonas aeruginosa
Protocol: as §1, §2

E. cloacae B2366-12 = assay type: cell-based, Enterobacter cloacae
Protocol: as §1, §2

E. coli ATCC 25922 = assay type: cell-based, Escherichia coli
Protocol: as §1, §2

E. coli K12 = assay type: cell-based, Escherichia coli; details: K12
Protocol: (§3) The bacterial strains used here included Gram-positive bacteria Staphylococcus aureus USA300 LAC, Staphylococcus epidermidis 1457, Bacillus subtilis 168, and Gram-negative Escherichia coli K12. Clinical strains of S. aureus, including Mu50, UAMS-1 and Newman, were also evaluated.
(§4) The antimicrobial activity of peptides was evaluated using a standard broth microdilution protocol (Wang, G. (2008) J. Biol. Chem., 283:32637-32643). In brief, exponential phase bacteria at 10^6 CFU were incubated with serially diluted peptides overnight for ˜20 hours at 37° C. The plates were read on a ChroMate® 4300 Microplate Reader at 630 nm (GMI, Ramsey, Minn.). […] In addition, the effects of human serum (up to 10%), pH (6.8, 7.4 and 8.0) and 150 mM sodium chloride (NaCl) on MICs against S. aureus USA300 were also evaluated (Mishra et al. (2015) RSC Advances 5:59758-59769).

S. epidermidis 1457 = assay type: cell-based, Staphylococcus epidermidis
Protocol: as §3, §4

B. subtilis 168 = assay type: cell-based, Bacillus subtilis
Protocol: as §3, §4

S. aureus Mu50 = assay type: cell-based, Staphylococcus aureus
Protocol: as §3, §4

S. aureus Newman = assay type: cell-based, Staphylococcus aureus
Protocol: as §3, §4

S. aureus UAMS-1 = assay type: cell-based, Staphylococcus aureus
Protocol: as §3, §4

S. aureus USA300 [1] = assay type: cell-based, Staphylococcus aureus
Protocol: as §3, §4

S. aureus USA300 [2] = assay type: cell-based, Staphylococcus aureus; details: USA300
Protocol: The minimal bactericidal concentration (MBC) was determined by plating 50 μl of the content in the clear wells of the above MIC assays. MBC was determined on the petri dishes without bacterial colony formation after overnight growth (Wang et al. (2012) Biochemistry 51:653-664).

[3] = test system: Candida albicans ATCC 10231; assay type: cell-based; details: ATCC 10231, 48 h
Protocol: (§5) Fungal strains used in this study include Candida albicans ATCC 10231, C. glabrata ATCC 2001 and C. tropicalis ATCC 13803. The fungi were grown in Remel Dex broth (Thermo Fisher Scientific, KS). Antifungal assays were conducted essentially as described for antibacterial assays above, except for a higher starting density at an OD600 0.02 and a longer incubation time of ˜48 hours prior to microplate reading (Mishra et al. (2015) RSC Advances 5:59758-59769).

C. glabrata ATCC 2001 = assay type: cell-based, Candida glabrata; details: ATCC 2001, 48 h
Protocol: as §5

C. tropicalis ATCC 13803 = assay type: cell-based, Candida tropicalis; details: ATCC 13803, 48 h
Protocol: as §5

Hemolytic assay = assay type: cell-based; details: red blood cells, hemolysis
Protocol: Hemolytic analysis of selected peptides was performed using an established protocol (Mishra et al. (2015) RSC Advances 5:59758-59769). Briefly, human blood cells (UNMC Blood Bank) were washed three times with phosphate buffer saline (PBS) and diluted to a 2% solution. After peptide treatment, incubation at 37° C. for one hour, and centrifugation at 13,000 rpm, aliquots of the supernatant were transferred to a fresh 96-well microplate. To assess peptide cytotoxicity, the amount of hemoglobin released was measured at 545 nm. The percent lysis was calculated by assuming 100% release when human blood cells were treated with 1% TRITON™ X-100, and 0% release when incubated with PBS buffer. The hemolytic assays using chicken, bovine, and porcine blood cells (Lampire Biological Laboratories, Inc.) were performed in the same manner.

MTS cytotoxicity assay [4] = assay type: cell-based; details: human
Protocol: (§6) HeLa CCL-2 epithelial adenocarcinoma cells from American Type Culture Collection (ATCC) were maintained in DMEM high glucose media with 4 mM L-glutamine (NyClone) and 100 U/mL penicillin, 100 μg/mL streptomycin (pen/strep) (Life Technologies), and 10% (v/v) inactivated fetal bovine serum (FBS) (NyClone). Cells were grown in 5% CO2 at 37° C. and were detached from the culturing dish at 80% confluency using 0.025% trypsin-EDTA (NyClone) treatment. Peptide influence on the cell viability was estimated by using the MTS assay according to the manufacturer's protocol (MTS, CellTiter96® AQ One Solution Cell Proliferation Assay, Promega) with minor modifications and as described elsewhere (Mishra et al. (2015) RSC Advances 5:59758-59769). In short, cells were cultured in flat bottomed 96 well microtiter plates (Corning Life Science) at a seeding density of 20,000 cells/well. At confluence ˜100% achieved after 20-24 hours of cultivation, the cells were washed twice with 100 μL Dulbecco's Phosphate Buffered Saline (Life Technologies). Further, 90 μL of DMEM media with 10% FBS, pen/step was added before exposure to 10 μL of the peptide solution in the concentration range 12.5-100 μM. Plates were incubated at 37° C. After 1 hour, 10 μL MTS, CellTiter96® was added. Plates were further incubated for another 2 hours at 37° C. and finally, the absorbance was measured on ChroMate® reader (Awareness Technology) at 492 nm. Culture medium and 0.2% SDS were used as negative and positive controls, respectively.
Human skin HaCaT (immortalized keratinocyte from AddexBio, T0020001) and kidney HEK293 cells were also cultivated for cytotoxicity evaluation of the peptides in a similar manner.

MTS cytotoxicity assay [5] = assay type: cell-based; details: human, HeLa CCL-2 cells
Protocol: as §6

- MIC EF (E. faecium ATCC51559): 6.25 µM (≈ 13.4 µg/mL)
- MIC SA (S. aureus USA300 LAC): 18 µM (≈ 38.7 µg/mL)
- MIC AB (A. baumannii B2367-12): 25 µM (≈ 53.7 µg/mL)
- MIC PA (P. aeruginosa PAO1): > 50 µM
- MIC ECl (E. cloacae B2366-12): > 50 µM
- MIC EC (E. coli ATCC 25922): > 50 µM
SMILES: CC[C@H](C)[C@H](NC(=O)[C@H](CCCNC(=N)N)NC(=O)[C@H](CCC(N)=O)NC(=O)[C@@H](NC(=O)[C@@H](NC(=O)[C@H](CCCNC(=N)N)NC(=O)[C@H](CCCCN)NC(=O)[C@H](Cc1ccccc1)NC(=O)[C@@H](N)CS)[C@@H](C)CC)C(C)C)C(=O)N[C@@H](CCCCN)C(=O)N[C@@H](CC(=O)O)C(=O)N[C@@H](Cc1ccccc1)C(=O)N[C@@H](CC(C)C)C(=O)N[C@@H](CCCNC(=N)N)C(=O)N[C@@H](CC(N)=O)C(=O)N[C@@H](CC(C)C)C(=O)N[C@H](C(N)=O)C(C)C [CysFK-16] (H-CFKRIVQRIKDFLRNLV-NH2; N-terminus and C-terminus assumed)

- MIC EF (E. faecium ATCC51559; ATCC51559): ≤3.1 µM
- MIC SA (S. aureus USA300 LAC; USA300): 3.1 ± 0 µM (≈ 6.99 µg/mL)
- MIC AB (A. baumannii B2367-12; B2367-12): 3.1 ± 0 µM (≈ 6.99 µg/mL)
- MIC PA (P. aeruginosa PAO1; PAO1): 6.25 ± 0 µM (≈ 14.1 µg/mL)
- MIC ECl (E. cloacae B2366-12; B2366-12): 6.25 ± 0 µM (≈ 14.1 µg/mL)
- MIC EC (E. coli ATCC 25922; ATCC 25922): 3.1 ± 0 µM (≈ 6.99 µg/mL)
SMILES: CC(C)C[C@H](NC(=O)[C@H](CC(N)=O)NC(=O)[C@H](CCCNC(=N)N)NC(=O)[C@@H](CC(C)C)NC(=O)[C@H](Cc1ccc(-c2ccccc2)cc1)NC(=O)[C@H](CC(=O)O)NC(=O)[C@H](CCCCN)NC(=O)[C@@H](CC(C)C)NC(=O)[C@H](CCCNC(=N)N)NC(=O)[C@H](CCC(N)=O)NC(=O)[C@@H](NC(=O)[C@@H](CC(C)C)NC(=O)[C@H](CCCNC(=N)N)NC(=O)[C@H](CCCCN)NC(=O)[C@H](Cc1ccc(-c2ccccc2)cc1)NC(=O)CN)C(C)C)C(=O)N[C@H](C(N)=O)C(C)C [Merecidin, reference compound] (H-G[Bip]KR[dL]VQR[dL]KD[Bip][dL]RNLV-NH2; N-terminus and C-terminus assumed)

SMILES: CC[C@H](C)[C@H](NC(=O)[C@H](CCCNC(=N)N)NC(=O)[C@H](CCCCN)NC(=O)[C@H](CC(C)C)NC(=O)[C@H](Cc1c[nH]c2ccccc12)NC(=O)[C@H](Cc1c[nH]c2ccccc12)NC(=O)[C@@H](N)Cc1c[nH]c2ccccc12)C(=O)N[C@@H](Cc1c[nH]c2ccccc12)C(N)=O [TetraF2W-KR, WWWLKRIW] (H-WWWLKRIW-NH2; N-terminus and C-terminus assumed)
- MIC E. coli K12 (E. coli K12): 12.5 to 25 µM
- MIC S. epidermidis 1457 (S. epidermidis 1457): 12.5 µM (≈ 15.9 µg/mL)
- MIC B. subtilis 168 (B. subtilis 168): 6.2 µM (≈ 7.89 µg/mL)
- Antimicrobial activity (MIC) Mu50 (S. aureus Mu50): 6.2 µM
- Antimicrobial activity (MIC) Newman (S. aureus Newman): 3.1 to 6.2 µM
- Antimicrobial activity (MIC) UAMS-1 (S. aureus UAMS-1): 6.2 µM
- change in MIC on drop of pH from 8 to 6.8 (S. aureus USA300 [1]; S. aureus USA300): two-fold
- Antimicrobial activity (MIC) 150 mM NaCl (S. aureus USA300 [1]; USA300): 3.1 µM
- Antimicrobial activity (MIC) USA300 (S. aureus USA300 [1]; USA300): 3.1 µM
- MIC S. aureus USA300 (S. aureus USA300 [1]; USA300): 3.1 µM (≈ 3.94 µg/mL)
- Antimicrobial activity (MIC) pH 6.8 (S. aureus USA300 [1]; USA300, pH 6.8): 6.2 μM
- Antimicrobial activity (MIC) Normal medium (pH 7.4) (S. aureus USA300 [1]; USA300, pH 7.4): 3.1 μM
- Antimicrobial activity (MIC) pH 8 (S. aureus USA300 [1]; USA300, pH 8): 3.1 μM
- MBC S. aureus USA300 (S. aureus USA300 [2]): 12.5 µM (≈ 15.9 µg/mL)
- MIC Candida albicans [3]: 12.5 µM (≈ 15.9 µg/mL)
- MIC Candida glabrata (C. glabrata ATCC 2001): 12.5 µM (≈ 15.9 µg/mL)
- MIC Candida tropicalis (C. tropicalis ATCC 13803): 3.1 to 6.2 µM
- CC50 at 1 hour (Hemolytic assay; chicken, read-out: LC50 Chicken RBCs): 35 µM
- CC50 at 1 hour (Hemolytic assay; human, read-out: LC50 Human RBCs): 30 µM
- CC50 at 1 hour (Hemolytic assay; pig, read-out: LC50 Porcine RBCs): 50 µM
- CC50 at 1 hour (MTS cytotoxicity assay [4]; HEK293 cells): 55 µM
- CC50 at 1 hour (MTS cytotoxicity assay [4]; HaCaT cells): 60 µM
- CC50 at 1 hour (MTS cytotoxicity assay [5]): 100 µM
